Test results as given in patent publication US6362172B1, “Water soluble prodrugs of azole compounds” (Bristol-Myers Squibb Company, priority 2000, dated 2002).
In brackets after ≈: the same amount, converted by molar mass.

How the values were obtained:
[1] = aqueous solubility; conditions: for solubility and stability of the crystalline salt: single polymorph crystalline solids; for solubility: aqueous
[2] = conversion of prodrug to parent drug in vivo
[3] = stability in solution

Structure (SMILES)	solubility and stability of the crystalline salt [1]	solubility ([1]; pH 4.3, aqueous buffer) [µg/mL]	solubility ([1]; pH 7, aqueous buffer) [µg/mL]	conversion to parent drug in vivo [2]	stability in solution [3]
C[C@@H](c1nc(-c2ccc(C#N)cc2)cs1)[C@@](Cn1cncn1)(OCOP(=O)(O)O)c1ccc(F)cc1F.NCCCC[C@H](N)C(=O)O.NCCCC[C@H](N)C(=O)O [Example 3, Bis lysine salt of (2R,3R)-3-[4-(4-cyanophenyl)thiazol-2-yl]-2-(2,4-difluorophenyl)-1-(1H-1,2,4-triazol-1-yl)-2-[(dihydrogenphosphonoxy)methoxy]butane]	good solubility and stability				
CC(C)(C)N.C[C@@H](c1nc(-c2ccc(C#N)cc2)cs1)[C@@](Cn1cncn1)(OCOP(=O)(O)O)c1ccc(F)cc1F [Example 4, Tert-butyl amine salt of (2R,3R)-3-[4-(4-cyanophenyl)thiazol-2-yl]-2-(2,4-difluorophenyl)-1-(1H-1,2,4-triazol-1-yl)-2-[(dihydrogenphosphonoxy)methoxy]butane]	good solubility and stability				
C[C@@H](c1nc(-c2ccc(C#N)cc2)cs1)C(Cn1cncn1)(OCOP(=O)(O)O)c1ccc(F)cc1F (stereo partly drawn) [Example 2, (2R,3R)-3-[4-(4-cyanophenyl)thiazol-2-yl]-2-(2,4-difluorophenyl)-1-(1H-1,2,4,- triazol-1-yl)-2-[(dihydrogenphosphonoxy)methoxy]butane]		5000 to 6000 (≈ 9.13 to 11 mM)	> 10000	readily converted to parent drug in vivo	stable in solution
